Measurements from patent publication US20100298141A1, “SUBSTITUTED PYRIDINE N-OXIDE HERBICIDES” (E. I. DU PONT DE NEMOURS AND COMPANY, priority 2007, published 2010).

Tests used:
[1] = test system: Italian ryegrass; assay: Test C pre-/postemergence test; format: in vivo, Lolium multiflorum
Summary of the method: (§1)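 Test chemicals were formulated with surfactant in a non-phytotoxic solvent and sprayed both on freshly planted seeds (preemergence) and on 1- to 4-leaf plants of 2–18 cm (postemergence). Flooded-paddy pots received compound directly into 3 cm of standing water, maintained for the test.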

[2] = test system: umbrella sedge; assay: Test C flooded paddy test; format: in vivo, Cyperus difformis; conditions: Flood
Summary of the method: (§2)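 Greenhouse pots flooded to 3 cm above soil at time of treatment received compound via the water, which stayed at that level.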

[3] = test system: duck salad; assay: Test C flooded paddy test; format: in vivo, Heteranthera limosa; conditions: Flood
Summary of the method: as §2

[4] = test system: woolly cupgrass; assay: Test C pre-/postemergence test; format: in vivo, Eriochloa villosa
Summary of the method: as §1

[5] = test system: common (oilseed) sunflower; assay: Test C pre-/postemergence test; format: in vivo, Helianthus annuus
Summary of the method: as §1

[6] = test system: wheat; assay: Test C pre-/postemergence test; format: in vivo, Triticum aestivum; conditions: for Wheat plant response rating: preemergence, scale 0 (no effect) to 100 (complete control)
Summary of the method: as §1

[7] = test system: common ragweed; assay: Test C pre-/postemergence test; format: in vivo, Ambrosia elation
Summary of the method: as §1

[8] = test system: corn; assay: Test C pre-/postemergence test; format: in vivo, Zea mays
Summary of the method: as §1

[9] = test system: redroot pigweed; assay: Test A pre-/postemergence greenhouse test; format: in vivo, Amaranthus retroflexus; conditions: for Pigweed plant response rating: 0 to 100 scale
Summary of the method: (§3)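 Seeds sown in a loam soil–sand blend got a preemergence directed soil spray of compound in a non-phytotoxic solvent mixture containing surfactant. Postemergence sprays of the same formulation went at the same time onto plants 2–10 cm tall at the one- to two-leaf stage. Injury was scored visually against untreated controls after about ten days in the greenhouse.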

[10] = test system: morningglory; assay: Test A pre-/postemergence greenhouse test; format: in vivo, Ipomoea spp.; conditions: for Morningglory plant response rating: 0 to 100 scale
Summary of the method: as §3

[11] = test system: green foxtail; assay: Test C pre-/postemergence test; format: in vivo, Setaria viridis
Summary of the method: as §1

[12] = test system: crabgrass; assay: Test A pre-/postemergence greenhouse test; format: in vivo, Digitaria sanguinalis; conditions: for Crabgrass, Large plant response rating: 0 to 100 scale
Summary of the method: as §3

[13] = test system: eastern black nightshade; assay: Test C pre-/postemergence test; format: in vivo, Solanum ptycanthum
Summary of the method: as §1

[14] = test system: blackgrass; assay: Test C pre-/postemergence test; format: in vivo, Alopecurus myosuroides
Summary of the method: as §1

[15] = test system: wild oat; assay: Test C pre-/postemergence test; format: in vivo, Avena fatua
Summary of the method: as §1

[16] = test system: Goosegrass; assay: Test C pre-/postemergence test; format: in vivo, Eleusin indica
Summary of the method: as §1

[17] = test system: yellow nutsedge; assay: Test C pre-/postemergence test; format: in vivo, Cyperus esculentus
Summary of the method: as §1

[18] = 31 g ai/ha, Preemergence, scale 0 to 100
[19] = 62 g ai/ha, preemergence, scale 0 (no effect) to 100 (complete control)
[20] = preemergence, 125 g ai/ha, scale 0 (no effect) to 100 (complete control)
[21] = 31 g ai/ha, scale 0 to 100 (0 no effect, 100 complete control)
[22] = 62 g ai/ha, scale 0 to 100, 0 no effect, 100 complete control, 13 to 15 days
[23] = 125 g ai/ha, scale 0 to 100, 0 no effect, 100 complete control, 13 to 15 days
[24] = 250 g ai/ha, scale 0 to 100 (0 no effect, 100 complete control)
[25] = Postemergence, 125 g ai/ha, 0 is no effect, 100 is complete control
[26] = Postemergence, 500 g ai/ha, 0 is no effect, 100 is complete control
[27] = Preemergence, 125 g ai/ha, 0 no effect, 100 complete control
[28] = Preemergence, 500 g ai/ha, 0 to 100 scale where 0 is no effect and 100 is complete control

Compound: Cn1nc(C(F)(F)F)c(CS(=O)(=O)c2cccc[n+]2[O-])c1Cl [Compound 9]
- Ryegrass, Italian plant response rating [1, 18]: 0
- Ryegrass, Italian plant response rating [1, 19]: 50
- Plant response rating (0 to 100), Ryegrass, Italian ([1]; Preemergence, 250 g ai/ha): 65
- Ryegrass, Italian plant response rating [1, 20]: 65
- Plant response rating, Sedge, Umbrella [2, 21]: 0
- Plant response rating, Sedge, Umbrella [2, 22]: 85
- Plant response rating, Sedge, Umbrella [2, 23]: 90
- Plant response rating, Sedge, Umbrella [2, 24]: 100
- Plant response rating, Ducksalad [3, 21]: 0
- Plant response rating, Ducksalad [3, 22]: 65
- Plant response rating, Ducksalad [3, 23]: 85
- Plant response rating, Ducksalad [3, 24]: 90
- Cupgrass, Woolly plant response rating [4, 18]: 0
- Plant response rating (0 to 100), Cupgrass, Woolly ([4]; Preemergence, 250 g ai/ha): 100
- Cupgrass, Woolly plant response rating [4, 20]: 100
- Plant response rating (0 to 100), Sunflower ([5]; Preemergence, 250 g ai/ha): 70
- Sunflower plant response rating [5, 20]: 5
- Wheat plant response rating ([6]; 62 g ai/ha): 30
- Plant response rating (0 to 100), Wheat ([6]; Preemergence, 250 g ai/ha): 70
- Wheat plant response rating ([6]; 125 g ai/ha): 45
- Ragweed plant response rating [7, 18]: 45
- Plant response rating (0 to 100), Ragweed ([7]; Preemergence, 250 g ai/ha): 100
- Ragweed plant response rating [7, 20]: 90
- Corn plant response rating [8, 18]: 20
- Plant response rating (0 to 100), Corn ([8]; Preemergence, 250 g ai/ha): 98
- Corn plant response rating [8, 20]: 98
- Pigweed plant response rating [9, 25]: 10
- Pigweed plant response rating [9, 26]: 60
- Pigweed plant response rating [9, 27]: 100
- Plant response rating, Pigweed [9, 28]: 100
- Morningglory plant response rating [10, 25]: 20
- Morningglory plant response rating [10, 26]: 70
- Morningglory plant response rating [10, 27]: 40
- Plant response rating, Morningglory [10, 28]: 70
- Foxtail, Green plant response rating [11, 18]: 85
- Foxtail, Green plant response rating [11, 19]: 100
- Plant response rating (0 to 100), Foxtail, Green ([11]; Preemergence, 250 g ai/ha): 100
- Foxtail, Green plant response rating [11, 20]: 100
- Crabgrass, Large plant response rating [12, 25]: 80
- Crabgrass, Large plant response rating [12, 26]: 90
- Crabgrass, Large plant response rating [12, 27]: 100
- Plant response rating, Crabgrass, Large [12, 28]: 100
- Nightshade plant response rating [13, 18]: 80
- Nightshade plant response rating [13, 20]: 100
- Blackgrass plant response rating [14, 18]: 0
- Blackgrass plant response rating [14, 19]: 50
- Plant response rating (0 to 100), Blackgrass ([14]; Preemergence, 250 g ai/ha): 95
- Blackgrass plant response rating [14, 20]: 50
- Oat, Wild plant response rating [15, 18]: 0
- Oat, Wild plant response rating [15, 19]: 0
- Plant response rating (0 to 100), Oat, Wild ([15]; Preemergence, 250 g ai/ha): 55
- Oat, Wild plant response rating [15, 20]: 40
- Goosegrass plant response rating [16, 18]: 100
- Plant response rating (0 to 100), Goosegrass ([16]; Preemergence, 250 g ai/ha): 100
- Goosegrass plant response rating [16, 20]: 100
- Nutsedge, Yellow plant response rating [17, 18]: 40
- Plant response rating (0 to 100), Nutsedge, Yellow ([17]; Preemergence, 250 g ai/ha): 100
- Nutsedge, Yellow plant response rating [17, 20]: 100
